Results on 29 molecules are retold here after US6785989B2, “Methods and apparatus for removal of wrinkles from fabrics” (The Procter & Gamble Company, priority 2000, dated 2004).

For series [1] the following is noted: cited from earlier work.
Series [2] in a line: Perfume component interaction with cyclodextrin (CD interaction). Format: physicochemical. Particulars: perfume component complexing with cyclodextrin. The source says: The following table illustrates the molecular weight property of some of the preferred perfume versus non-preferred perfume components.

For `OCCOc1ccccc1` [2-phenoxyethanol], the solubility in water entry in series [1] is listed as “about 2.67%”.

As for `OCCc1ccccc1` [2-phenylethanol], in series [1], the solubility in water entry is on record as “about 2%”.

As for `O=[N+]([O-])C1(Br)COCOC1` [Bronidox L, 5-bromo-5-nitro-1,3-dioxane], the solubility in water result in series [1] is reported as “about 0.46%”.

Consider `CC(C=O)Cc1ccc(C(C)C)cc1` (centres unmarked) [Cymal], for which the CD interaction result in series [2] is “strong”.

In the case of `CC1(C)C(=O)N(CO)C(=O)N1CO` [DMDM hydantoin, 1,3-bis(hydroxymethyl)-5,5-dimethyl-2,4-imidazolidinedione], the solubility in water entry in series [1] is recorded as “more than 50%”.

On to `CCOC(=O)c1ccccc1C(=O)OCC` [Diethyl Phthalate], for which the CD interaction result in series [2] is listed as “weak”.

In the case of `ClC=CC[N+]12CN3CN(CN(C3)C1)C2.[Cl-]` [Dowicil 200, 1-(3-Chlorallyl)-3,5,7-triaza-1-azoniaadamantane chloride], the “solubility in water” value in series [1] is “freely soluble”.

On to `CC(=O)OC1CC2CC1C1CC=CC21` (centres unmarked) [Flor Acetate], for which, in series [2], the CD interaction entry is recorded as “strong”.

Turning to `CCC(=O)OC1CC2CC1C1CC=CC21` (centres unmarked) [Frutene], the CD interaction result in series [2] is reported as “strong”.

Consider `CC1COCc2cc3c(cc21)C(C)(C)C(C)C3(C)C` (centres unmarked) [Galaxolide], for which, in series [2], the CD interaction result is listed as “weak”.

As for `CCCCCCOC(=O)c1ccccc1O` [Hexyl Salicylate], in series [2], the CD interaction result is given as “weak”.

For the molecule `CCCCCCC(C=O)=Cc1ccccc1` [Hexyl cinnamic Aldehyde], in series [2], the CD interaction entry is recorded as “weak”.

As to `CC(=O)C1(C)CC2=C(CCCC2(C)C)CC1C` (centres unmarked) [Iso-E Super], the CD interaction result in series [2] is on record as “weak”.

For `CCCCCCCCCCCCCC(=O)OC(C)C` [Iso-propyl Myristate], the CD interaction entry in series [2] was “weak”.

For the molecule `CC(=O)C(C)=C(C)C(C)C(C)(C)C` (centres unmarked) [Koavone], in series [2], the CD interaction entry was “strong”.

In the case of `CC(C=O)Cc1ccc(C(C)(C)C)cc1` (centres unmarked) [Lilial, p-t-bucinal], in series [2], the CD interaction result is “strong”.

With `CC(C)(O)CCCC1=CCC(C=O)CC1` (centres unmarked) [Lyral], the CD interaction result in series [2] is given as “weak”.

In the case of `CCCCCC1C(=O)CCC1CC(=O)OC` (centres unmarked) [Methyl Dihydro Jasmonate], the CD interaction entry in series [2] is on record as “weak”.

In the case of `O=C(Cc1ccccc1)OCCc1ccccc1` [Phenyl-Ethyl-Phenyl Acetate], the CD interaction result in series [2] is “weak”.

Take `CC(=O)OC(C)(C)C1CC=C(C)CC1` (centres unmarked) [Terpinyl Acetate]: the CD interaction entry in series [2] is “significant”.

In the case of `CCC(C)(O)CCCC(C)C` (centres unmarked) [Tetrahydrolinalol], the CD interaction result in series [2] is listed as “significant”.

As for `CC(=O)OC1CCC(C(C)(C)C)CC1` (centres unmarked) [Vertenex, para-tert-butylcyclohexyl acetate], in series [2], the CD interaction entry was “strong”.

Regarding `CC(=O)/C=C/C1C(C)=CCCC1(C)C` (centres unmarked) [a-ionone], the CD interaction result in series [2] was “strong”.

Take `OCc1ccccc1` [benzyl alcohol]: in series [1], the solubility in water result is on record as “about 4%”.

Turning to `[H]/N=C(\N/C(=N/[H])NCCCCCCNC(=N)NC(=N)Nc1ccc(Cl)cc1)Nc1ccc(Cl)cc1` [chlorhexidine diacetate, 1,1′-hexamethylene bis(5-(p-chlorophenyl)biguanide), reference compound], the solubility in water result in series [1] was “about 1.8%”.

For `[H]/N=C(\N/C(=N/[H])NCCCCCCNC(=N)NC(=N)Nc1ccc(Cl)cc1)Nc1ccc(Cl)cc1` [chlorhexidine digluconate, 1,1′-hexamethylene bis(5-(p-chlorophenyl)biguanide), reference compound], the solubility in water entry in series [1] is “about 70%”.

For `CC(C)(O)C(Cl)(Cl)Cl` [chlorobutanol, 1,1,1-Trichloro-2-methylpropan-2-ol], the solubility in water entry in series [1] is on record as “about 0.8%”.

Take `[Na+].[O-][n+]1ccccc1[S-]` [sodium pyrithione]: the solubility in water result in series [1] was “about 50%”.

For the molecule a-Me Ionone, the CD interaction entry in series [2] is “strong”.
